Results from US10597388B2, “Pyridazinone herbicides” (FMC CORPORATION, priority 2014, dated 2020).

Assays:
Assay type in all cases: in vivo
corn (Zea mays) = assay: Test A greenhouse herbicide test, pre- and postemergence; settings: Postemergence; for Plant response rating, Corn: 125 g ai/ha, 0 to 100 scale where 0 is no effect and 100 is complete control; for Corn plant response rating: 500 g ai/ha, 0 to 100 scale, 0 is no effect, 100 is complete control
In short: (§1)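 Visual injury ratings, 0 (no effect) to 100 (complete control), versus untreated plants after roughly 10 d in a greenhouse. Compounds, formulated in a surfactant-containing non-phytotoxic solvent, were sprayed on loam–sand soil after sowing (pre) or on one- to two-leaf plants 2–10 cm tall (post).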

[1] = system: foxtail, giant (giant foxtail, Setaria faberii); assay: as above
In short: as §1

kochia (Kochia scoparia) = assay: as above
In short: as §1

[2] = system: ragweed (common ragweed, Ambrosia elatior); assay: as above
In short: as §1

[3] = system: ryegrass, Italian (Italian ryegrass, Lolium multiflorum); assay: as above
In short: as §1

[4] = system: wheat (Triticum aestivum); assay: as above; settings: Postemergence; for Plant response rating, Wheat: 125 g ai/ha, 0 to 100 scale where 0 is no effect and 100 is complete control; for Wheat plant response rating: 500 g ai/ha, 0 to 100 scale, 0 is no effect, 100 is complete control
In short: as §1

[5] = system: blackgrass (Alopecurus myosuroides); assay: Test A greenhouse herbicide test, postemergence; settings: for Plant response rating, Blackgrass: 125 g ai/ha, 0 to 100 scale where 0 is no effect and 100 is complete control; for Blackgrass plant response rating: 500 g ai/ha, 0 to 100 scale, 0 is no effect, 100 is complete control
In short: (§2)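 Seedlings in a loam soil and sand mix received formulated compound postemergence at the one- to two-leaf stage. Greenhouse holding lasts approximately 10 d, then injury is scored visually relative to untreated plants, 0 meaning no effect and 100 complete control.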

[6] = system: galium (catchweed bedstraw, Galium aparine); assay: Test A greenhouse herbicide test, postemergence; settings: for Plant response rating, Galium: 125 g ai/ha, 0 to 100 scale where 0 is no effect and 100 is complete control; for Galium plant response rating: 500 g ai/ha, 0 to 100 scale, 0 is no effect, 100 is complete control
In short: as §2

[7] = system: galium (catchweed bedstraw, Galium aparine); assay: Test C greenhouse herbicide test, pre- and postemergence
In short: (§3)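 Percent-control ratings (0 none, 100 complete) came from visual comparison with controls held alongside in the greenhouse for 13–15 d. Treatments covered soil application at sowing and foliar application to young plants 2–18 cm tall.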

[8] = system: ragweed (common ragweed, Ambrosia elatior); assay: as above
In short: as §3

[9] = system: ryegrass, Italian (Italian ryegrass, Lolium multiflorum); assay: as above
In short: as §3

soybean (Glycine max) = assay: as above
In short: as §3

[10] = Postemergence, 125 g ai/ha, 0 to 100 scale where 0 is no effect and 100 is complete control
[11] = Postemergence, 500 g ai/ha, 0 to 100 scale, 0 is no effect, 100 is complete control
[12] = Preemergence, 125 g ai/ha, 0 to 100 scale where 0 is no effect and 100 is complete control
[13] = Preemergence, 500 g ai/ha, 0 to 100 scale where 0 is no effect and 100 is complete control
[14] = Postemergence, 125 g ai/ha, scale 0 to 100, 0 is no effect, 100 is complete control
[15] = Postemergence, 250 g ai/ha, scale 0 to 100, 0 no effect, 100 complete control, 13 to 15 d
[16] = Preemergence, 31 g ai/ha, scale 0 to 100, 0 is no effect, 100 is complete control
[17] = Preemergence, 62 g ai/ha, scale 0 to 100, 0 is no effect, 100 is complete control
[18] = Preemergence, 125 g ai/ha, scale 0 to 100, 0 is no effect, 100 is complete control
[19] = Preemergence, 250 g ai/ha, scale 0 to 100 (0 no effect, 100 complete control)
[20] = postemergence, 62 g ai/ha, scale 0 to 100, 0 no effect, 100 complete control

SMILES: COC(=O)Oc1c(C)nn(C)c(=O)c1-c1c(C)sc2c(C)cc(C)cc12 [Compound 81]
- Plant response rating, Corn (corn (Zea mays)): 0
- Corn plant response rating (corn (Zea mays)): 0
- Plant response rating, Foxtail, Giant [1, 10]: 90
- Foxtail, Giant plant response rating [1, 11]: 100
- Foxtail, Giant plant response rating [1, 12]: 100
- Plant response rating, Foxtail, Giant [1, 13]: 100
- Plant response rating, Kochia (kochia (Kochia scoparia); [10]): 60
- Kochia plant response rating (kochia (Kochia scoparia); [11]): 100
- Kochia plant response rating (kochia (Kochia scoparia); [12]): 30
- Plant response rating, Kochia (kochia (Kochia scoparia); [13]): 100
- Plant response rating, Ragweed [2, 10]: 90
- Ragweed plant response rating [2, 11]: 100
- Ragweed plant response rating [2, 12]: 90
- Plant response rating, Ragweed [2, 13]: 100
- Plant response rating, Ryegrass, Italian [3, 10]: 100
- Ryegrass, Italian plant response rating [3, 11]: 100
- Ryegrass, Italian plant response rating [3, 12]: 100
- Plant response rating, Ryegrass, Italian [3, 13]: 100
- Plant response rating, Wheat [4]: 0
- Wheat plant response rating [4]: 0
- Plant response rating, Blackgrass [5]: 90
- Blackgrass plant response rating [5]: 90
- Plant response rating, Galium [6]: 100
- Galium plant response rating [6]: 100
- Plant response rating, Galium [7, 14]: 95
- Plant response rating, Galium [7, 15]: 95
- Plant response rating, Galium [7, 16]: 90
- Plant response rating, Galium [7, 17]: 95
- Plant response rating, Galium [7, 18]: 95
- Galium plant response rating [7, 19]: 95
- Galium plant response rating [7, 20]: 95
- Plant response rating, Ragweed [8, 14]: 70
- Plant response rating, Ragweed [8, 15]: 85
- Plant response rating, Ragweed [8, 16]: 85
- Plant response rating, Ragweed [8, 17]: 95
- Plant response rating, Ragweed [8, 18]: 95
- Ragweed plant response rating [8, 19]: 98
- Ragweed plant response rating [8, 20]: 75
- Plant response rating, Ryegrass, Italian [9, 14]: 90
- Plant response rating, Ryegrass, Italian [9, 15]: 90
- Plant response rating, Ryegrass, Italian [9, 16]: 80
- Plant response rating, Ryegrass, Italian [9, 17]: 90
- Plant response rating, Ryegrass, Italian [9, 18]: 90
- Ryegrass, Italian plant response rating [9, 19]: 90
- Ryegrass, Italian plant response rating [9, 20]: 85
- Plant response rating, Soybean (soybean (Glycine max); [14]): 5
- Plant response rating, Soybean (soybean (Glycine max); [15]): 0
- Plant response rating, Soybean (soybean (Glycine max); [16]): 0
- Plant response rating, Soybean (soybean (Glycine max); [17]): 100
- Plant response rating, Soybean (soybean (Glycine max); [18]): 0
- Soybean plant response rating (soybean (Glycine max); [19]): 0
- Soybean plant response rating (soybean (Glycine max); [20]): 0

SMILES: CCOC(=O)Oc1c(C)nn(C)c(=O)c1-c1c(C)sc2ccc(C)cc12 [Compound 82]
- Plant response rating, Corn (corn (Zea mays)): 0
- Corn plant response rating (corn (Zea mays)): 0
- Plant response rating, Foxtail, Giant [1, 10]: 50
- Foxtail, Giant plant response rating [1, 11]: 70
- Foxtail, Giant plant response rating [1, 12]: 70
- Plant response rating, Foxtail, Giant [1, 13]: 90
- Plant response rating, Kochia (kochia (Kochia scoparia); [10]): 30
- Kochia plant response rating (kochia (Kochia scoparia); [11]): 80
- Kochia plant response rating (kochia (Kochia scoparia); [12]): 70
- Plant response rating, Kochia (kochia (Kochia scoparia); [13]): 90
- Plant response rating, Ragweed [2, 10]: 70
- Ragweed plant response rating [2, 11]: 70
- Ragweed plant response rating [2, 12]: 80
- Plant response rating, Ragweed [2, 13]: 80
- Plant response rating, Ryegrass, Italian [3, 10]: 70
- Ryegrass, Italian plant response rating [3, 11]: 80
- Ryegrass, Italian plant response rating [3, 12]: 80
- Plant response rating, Ryegrass, Italian [3, 13]: 90
- Plant response rating, Wheat [4]: 0
- Wheat plant response rating [4]: 0
- Plant response rating, Blackgrass [5]: 70
- Blackgrass plant response rating [5]: 70
- Plant response rating, Galium [6]: 90
- Galium plant response rating [6]: 90
- Plant response rating, Galium [7, 14]: 95
- Plant response rating, Galium [7, 15]: 95
- Plant response rating, Galium [7, 16]: 90
- Plant response rating, Galium [7, 17]: 90
- Plant response rating, Galium [7, 18]: 90
- Galium plant response rating [7, 19]: 95
- Galium plant response rating [7, 20]: 95
- Plant response rating, Ragweed [8, 14]: 95
- Plant response rating, Ragweed [8, 15]: 95
- Plant response rating, Ragweed [8, 16]: 85
- Plant response rating, Ragweed [8, 17]: 90
- Plant response rating, Ragweed [8, 18]: 90
- Ragweed plant response rating [8, 19]: 95
- Ragweed plant response rating [8, 20]: 98
- Plant response rating, Ryegrass, Italian [9, 14]: 85
- Plant response rating, Ryegrass, Italian [9, 15]: 85
- Plant response rating, Ryegrass, Italian [9, 16]: 80
- Plant response rating, Ryegrass, Italian [9, 17]: 85
- Plant response rating, Ryegrass, Italian [9, 18]: 85
- Ryegrass, Italian plant response rating [9, 19]: 90
- Ryegrass, Italian plant response rating [9, 20]: 85
- Plant response rating, Soybean (soybean (Glycine max); [14]): 5
- Plant response rating, Soybean (soybean (Glycine max); [15]): 10
- Plant response rating, Soybean (soybean (Glycine max); [16]): 0
- Plant response rating, Soybean (soybean (Glycine max); [17]): 100
- Plant response rating, Soybean (soybean (Glycine max); [18]): 0
- Soybean plant response rating (soybean (Glycine max); [19]): 0
- Soybean plant response rating (soybean (Glycine max); [20]): 10

SMILES: CCOC(=O)Oc1c(C)nn(C)c(=O)c1-c1c(C)sc2c(C)cc(C)cc12 [Compound 83]
- Plant response rating, Corn (corn (Zea mays)): 0
- Corn plant response rating (corn (Zea mays)): 0
- Plant response rating, Foxtail, Giant [1, 10]: 90
- Foxtail, Giant plant response rating [1, 11]: 100
- Foxtail, Giant plant response rating [1, 12]: 100
- Plant response rating, Foxtail, Giant [1, 13]: 100
- Plant response rating, Kochia (kochia (Kochia scoparia); [10]): 70
- Kochia plant response rating (kochia (Kochia scoparia); [11]): 100
- Kochia plant response rating (kochia (Kochia scoparia); [12]): 30
- Plant response rating, Kochia (kochia (Kochia scoparia); [13]): 100
- Plant response rating, Ragweed [2, 10]: 90
- Ragweed plant response rating [2, 11]: 100
- Ragweed plant response rating [2, 12]: 90
- Plant response rating, Ragweed [2, 13]: 100
- Plant response rating, Ryegrass, Italian [3, 10]: 90
- Ryegrass, Italian plant response rating [3, 11]: 100
- Ryegrass, Italian plant response rating [3, 12]: 100
- Plant response rating, Ryegrass, Italian [3, 13]: 100
- Plant response rating, Wheat [4]: 0
- Wheat plant response rating [4]: 20
- Plant response rating, Blackgrass [5]: 90
- Blackgrass plant response rating [5]: 100
- Plant response rating, Galium [6]: 100
- Galium plant response rating [6]: 100
- Plant response rating, Galium [7, 14]: 100
- Plant response rating, Galium [7, 15]: 100
- Plant response rating, Galium [7, 16]: 90
- Plant response rating, Galium [7, 17]: 90
- Plant response rating, Galium [7, 18]: 95
- Galium plant response rating [7, 19]: 95
- Galium plant response rating [7, 20]: 90
- Plant response rating, Ragweed [8, 14]: 90
- Plant response rating, Ragweed [8, 15]: 85
- Plant response rating, Ragweed [8, 16]: 85
- Plant response rating, Ragweed [8, 17]: 100
- Plant response rating, Ragweed [8, 18]: 95
- Ragweed plant response rating [8, 19]: 95
- Ragweed plant response rating [8, 20]: 85
- Plant response rating, Ryegrass, Italian [9, 14]: 90
- Plant response rating, Ryegrass, Italian [9, 15]: 95
- Plant response rating, Ryegrass, Italian [9, 16]: 90
- Plant response rating, Ryegrass, Italian [9, 17]: 90
- Plant response rating, Ryegrass, Italian [9, 18]: 90
- Ryegrass, Italian plant response rating [9, 19]: 90
- Ryegrass, Italian plant response rating [9, 20]: 90
- Plant response rating, Soybean (soybean (Glycine max); [14]): 0
- Plant response rating, Soybean (soybean (Glycine max); [15]): 10
- Plant response rating, Soybean (soybean (Glycine max); [16]): 30
- Plant response rating, Soybean (soybean (Glycine max); [17]): 0
- Plant response rating, Soybean (soybean (Glycine max); [18]): 0
- Soybean plant response rating (soybean (Glycine max); [19]): 0
- Soybean plant response rating (soybean (Glycine max); [20]): 0
